Measured values as given in patent US20150152395A1, “CHIMERIC LUCIFERASES” (Connecticut College, priority 2012, published 2015).

Experiments:
Test in all cases: Steady-state kinetic constants, bioluminescence activity
[1] = target: T1, Photinus pyralis luciferase variant Ppy RE-TS, SEQ ID NO: 24 (Photinus pyralis, UniProt P08659, A215L/E354K/F295L/I232A/S284T/T214A); type: biochemical
T1 construct: N-terminal GPLGS; pGEX-6P-2 GST fusion (tag cleaved), E. coli BL21
Experimental: (§1) Reactions were initiated by injection of solutions of the substrate being maintained at saturating concentration. Kinetic constants were determined using a nonlinear least squares method of the Enzyme Kinetics Pro software (SynTex), which fits data from the Michalis-Menten equation to a rectangular hyperbola. The corresponding kcat values were obtained by dividing the Vmax values by the amount (μmol) of each luciferase in the assay mixtures.

[2] = target: T2, 6×His-PpyWT, Photinus pyralis luciferase PpyWT with N-terminal peptide MRGSHHHHHHGS (SEQ ID NO: 27) in place of GPLGS (Photinus pyralis, UniProt P08659); type: biochemical
T2 construct: pQE-30, E. coli; Ni-NTA purified
Experimental: as §1

[3] = target: T3, Photinus pyralis luciferase PpyWT variant Ppy S284T (Ser284Thr) (Photinus pyralis, UniProt P08659, S284T); type: biochemical
T3 construct: pGEX-6P-2 GST fusion (tag cleaved), E. coli BL21
Experimental: as §1

[4] = target: LitWT, recombinant Luciola italica luciferase containing Lys547Gly/Met548Gly, SEQ ID NO: 6, with N-terminal peptide GPLGS (Luciola italica, UniProt Q1AG35, K547G/M548G); details: kcat divided by Mg-ATP Km
Experimental: as §1

[5] = target: T4, Photinus pyralis luciferase variant Ppy WT-TS5/I351V, PpyWT-TS (SEQ ID NO: 22) with Ile457Val/Ala482Gly/His489Lys/Ala503Asn/Lys543Gln/Ile351Val, SEQ ID NO: 12 (Photinus pyralis, UniProt P08659, A215L/A482G/A503N/E354K/F295L/H489K/I232A/I351V/I457V/K543Q/T214A); type: biochemical
T4 construct: N-terminal GPLGS; pGEX-6P-2 GST fusion (tag cleaved), E. coli BL21
Experimental: as §1

[6] = target: T5, Photinus pyralis luciferase PpyWT variant Ppy14, Ala450Pro/Ile457Val/Leu472Val/Asp475Ser/Asp476Glu/Ala482Gly/Leu487Met/His489Lys/Ala503Asn/Thr507Val/Thr508Asn/A (Photinus pyralis, UniProt P08659, A450P/A482G/A503N/A509H/D475S/D476E/H489K/I457V/K511R/L472V/L487M/T507V/T508N/V517R); type: biochemical
T5 construct: N-terminal GPLGS; pGEX-6P-2 GST fusion (tag cleaved), E. coli BL21
Experimental: as §1

[7] = read-out: Km Mg-ATP, pH 7.8, LH2 saturating

T5 sequence (P08659 whole entry A450P/I457V/L472V/D475S/D476E/A482G/L487M/H489K/A503N/T507V/T508N/A509H/K511R/V517R, the tested form may be a part): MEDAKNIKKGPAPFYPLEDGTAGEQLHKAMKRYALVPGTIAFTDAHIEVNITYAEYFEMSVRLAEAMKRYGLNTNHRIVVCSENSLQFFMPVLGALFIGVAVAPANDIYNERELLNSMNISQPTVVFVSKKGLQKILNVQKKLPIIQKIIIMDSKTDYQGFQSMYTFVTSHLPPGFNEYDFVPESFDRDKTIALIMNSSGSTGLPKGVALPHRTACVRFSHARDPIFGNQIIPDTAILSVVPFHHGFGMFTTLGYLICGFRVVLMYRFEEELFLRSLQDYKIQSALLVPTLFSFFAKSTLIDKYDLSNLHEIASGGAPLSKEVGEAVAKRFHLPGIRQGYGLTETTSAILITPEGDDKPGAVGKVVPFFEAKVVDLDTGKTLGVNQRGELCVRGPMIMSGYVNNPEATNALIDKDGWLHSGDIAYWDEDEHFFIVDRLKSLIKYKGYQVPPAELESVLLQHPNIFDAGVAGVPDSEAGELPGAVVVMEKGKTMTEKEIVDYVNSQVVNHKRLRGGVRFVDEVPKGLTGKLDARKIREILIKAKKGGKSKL
T3 sequence (P08659 whole entry S284T, the tested form may be a part): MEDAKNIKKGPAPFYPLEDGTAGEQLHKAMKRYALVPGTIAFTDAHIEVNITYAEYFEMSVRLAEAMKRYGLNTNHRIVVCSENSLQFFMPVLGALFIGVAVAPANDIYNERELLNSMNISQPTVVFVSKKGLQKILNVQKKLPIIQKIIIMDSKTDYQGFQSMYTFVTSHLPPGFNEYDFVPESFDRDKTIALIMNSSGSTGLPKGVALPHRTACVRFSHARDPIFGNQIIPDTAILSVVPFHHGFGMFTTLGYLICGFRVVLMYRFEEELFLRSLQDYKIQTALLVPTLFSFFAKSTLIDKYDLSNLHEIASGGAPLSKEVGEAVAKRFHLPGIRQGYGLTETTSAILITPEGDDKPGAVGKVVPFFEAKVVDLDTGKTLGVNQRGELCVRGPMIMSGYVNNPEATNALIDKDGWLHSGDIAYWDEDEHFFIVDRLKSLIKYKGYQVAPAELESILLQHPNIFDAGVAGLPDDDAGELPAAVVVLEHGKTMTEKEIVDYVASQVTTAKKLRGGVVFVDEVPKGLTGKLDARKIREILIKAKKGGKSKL
T4 sequence (P08659 whole entry T214A/A215L/I232A/F295L/I351V/E354K/I457V/A482G/H489K/A503N/K543Q, the tested form may be a part): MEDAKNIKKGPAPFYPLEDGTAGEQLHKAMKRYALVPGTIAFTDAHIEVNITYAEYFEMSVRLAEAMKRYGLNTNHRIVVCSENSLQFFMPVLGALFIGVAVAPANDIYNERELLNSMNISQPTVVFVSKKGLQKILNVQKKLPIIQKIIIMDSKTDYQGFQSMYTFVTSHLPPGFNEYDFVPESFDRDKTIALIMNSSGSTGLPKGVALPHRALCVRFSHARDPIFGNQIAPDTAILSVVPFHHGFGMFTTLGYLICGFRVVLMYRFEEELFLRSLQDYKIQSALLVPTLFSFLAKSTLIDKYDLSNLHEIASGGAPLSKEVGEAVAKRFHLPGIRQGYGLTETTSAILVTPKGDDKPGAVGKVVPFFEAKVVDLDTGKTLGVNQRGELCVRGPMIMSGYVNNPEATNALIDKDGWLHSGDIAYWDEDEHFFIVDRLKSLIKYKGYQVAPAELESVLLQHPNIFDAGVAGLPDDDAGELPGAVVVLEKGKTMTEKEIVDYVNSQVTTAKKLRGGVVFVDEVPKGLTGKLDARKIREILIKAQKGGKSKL
T1 sequence (P08659 whole entry T214A/A215L/I232A/S284T/F295L/E354K, the tested form may be a part): as the sequence (P08659 whole entry S284T, the tested form may be a part) above, with T214A, A215L, I232A, F295L, E354K counted along it
T2 sequence (P08659 whole entry): as the sequence (P08659 whole entry S284T, the tested form may be a part) above, with T284S counted along it
LitWT, recombinant Luciola italica luciferase containing Lys547Gly/Met548Gly, SEQ ID NO: 6, with N-terminal peptide GPLGS, sequence (Q1AG35 1-548 K547G/M548G): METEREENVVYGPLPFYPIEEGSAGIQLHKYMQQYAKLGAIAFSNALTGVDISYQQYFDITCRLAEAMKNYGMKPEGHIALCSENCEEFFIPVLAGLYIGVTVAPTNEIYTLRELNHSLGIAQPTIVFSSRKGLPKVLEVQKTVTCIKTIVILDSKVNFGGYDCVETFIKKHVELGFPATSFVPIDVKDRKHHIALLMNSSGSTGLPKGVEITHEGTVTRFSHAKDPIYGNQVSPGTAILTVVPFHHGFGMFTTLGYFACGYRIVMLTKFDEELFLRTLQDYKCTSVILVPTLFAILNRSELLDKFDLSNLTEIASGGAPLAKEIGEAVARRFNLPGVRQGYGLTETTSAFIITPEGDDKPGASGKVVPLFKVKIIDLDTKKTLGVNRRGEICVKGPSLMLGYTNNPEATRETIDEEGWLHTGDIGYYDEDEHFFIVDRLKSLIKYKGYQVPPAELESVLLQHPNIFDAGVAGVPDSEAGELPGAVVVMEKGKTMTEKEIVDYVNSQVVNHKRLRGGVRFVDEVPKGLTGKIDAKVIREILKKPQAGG

Nc1ncnc2c1ncn2[C@@H]1O[C@H](COP(=O)(O)OP(=O)(O)OP(=O)(O)O)[C@@H](O)[C@H]1O [Mg-ATP]
kcat/Km ([1]; kcat divided by Mg-ATP Km): 820 ± 90 M⁻¹ s⁻¹
Km [1, 7]: 68 ± 5 µM
kcat/Km ([2]; kcat divided by Mg-ATP Km): 1930 ± 110 M⁻¹ s⁻¹
Km ([2]; pH 7.8, LH2 saturating, read-out: Km Mg-ATP): 93 ± 9 µM
kcat/Km ([3]; kcat divided by Mg-ATP Km): 630 ± 140 M⁻¹ s⁻¹
Km [3, 7]: 79 ± 9 µM
kcat/Km [4]: 780 ± 110 M⁻¹ s⁻¹
kcat/Km ([5]; kcat divided by Mg-ATP Km): 3160 ± 70 M⁻¹ s⁻¹
Km [5, 7]: 79 ± 5 µM
kcat/Km ([6]; kcat divided by Mg-ATP Km): 6340 ± 110 M⁻¹ s⁻¹
Km [6, 7]: 41 ± 3 µM
